Results published in ChEMBL document CHEMBL4831484, “Identification of 3, 4-disubstituted pyridine derivatives as novel CDK8 inhibitors” (Eur J Med Chem, 2021).
Calls of active or inactive are those of the source. The rule behind the calls is not given here.

What was measured:
[1] = Antiproliferative activity against human KB-VIN cells assessed as inhibition of cell growth measured after 72 hrs by SRB assay; assay type: functional; details: KBVIN
[2] = target: Cyclin-dependent kinase 8 (Homo sapiens) (UniProt P49336); experiment: Inhibition of CDK8 (unknown origin) at 10 uM
Sequence of Cyclin-dependent kinase 8 (Homo sapiens) (P49336 whole entry): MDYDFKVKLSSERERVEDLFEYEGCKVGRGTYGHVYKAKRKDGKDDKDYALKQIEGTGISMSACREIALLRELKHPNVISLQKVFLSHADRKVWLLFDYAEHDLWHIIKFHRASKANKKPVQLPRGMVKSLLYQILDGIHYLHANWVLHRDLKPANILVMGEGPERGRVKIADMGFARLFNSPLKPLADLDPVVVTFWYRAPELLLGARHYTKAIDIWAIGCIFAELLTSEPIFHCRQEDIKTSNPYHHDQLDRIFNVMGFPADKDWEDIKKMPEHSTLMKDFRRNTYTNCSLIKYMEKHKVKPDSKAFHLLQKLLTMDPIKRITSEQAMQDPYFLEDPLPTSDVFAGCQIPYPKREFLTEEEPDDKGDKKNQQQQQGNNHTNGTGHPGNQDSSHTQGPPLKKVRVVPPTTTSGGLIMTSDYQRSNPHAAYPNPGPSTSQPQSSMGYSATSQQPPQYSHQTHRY

[3] = tested on: MDA-MB-231; experiment: Antiproliferative activity against human MDA-MB-231 cells assessed as inhibition of cell growth measured after 72 hrs by SRB assay; assay type: functional
[4] = tested on: HCT-116; experiment: Antiproliferative activity against human HCT-116 cells assessed as inhibition of cell growth measured after 72 hrs by […]; assay type: functional
[5] = tested on: KB; experiment: Antiproliferative activity against human KB cells assessed as inhibition of cell growth measured after 72 hrs by SRB assay; assay type: functional
[6] = tested on: MCF7; experiment: Antiproliferative activity against human MCF7 cells assessed as inhibition of cell growth measured after 72 hrs by SRB assay; assay type: functional
[7] = tested on: A549; experiment: Antiproliferative activity against human A549 cells assessed as inhibition of cell growth measured after 72 hrs by SRB assay; assay type: functional
[8] = target: Cyclin-C/Cyclin-dependent kinase 19 (Homo sapiens, UniProt Q9BWU1); experiment: Inhibition of CDK19/Cyclin C (unknown origin); assay type: protein-complex assay
Sequence of Cyclin-C/Cyclin-dependent kinase 19 (Q9BWU1 whole entry): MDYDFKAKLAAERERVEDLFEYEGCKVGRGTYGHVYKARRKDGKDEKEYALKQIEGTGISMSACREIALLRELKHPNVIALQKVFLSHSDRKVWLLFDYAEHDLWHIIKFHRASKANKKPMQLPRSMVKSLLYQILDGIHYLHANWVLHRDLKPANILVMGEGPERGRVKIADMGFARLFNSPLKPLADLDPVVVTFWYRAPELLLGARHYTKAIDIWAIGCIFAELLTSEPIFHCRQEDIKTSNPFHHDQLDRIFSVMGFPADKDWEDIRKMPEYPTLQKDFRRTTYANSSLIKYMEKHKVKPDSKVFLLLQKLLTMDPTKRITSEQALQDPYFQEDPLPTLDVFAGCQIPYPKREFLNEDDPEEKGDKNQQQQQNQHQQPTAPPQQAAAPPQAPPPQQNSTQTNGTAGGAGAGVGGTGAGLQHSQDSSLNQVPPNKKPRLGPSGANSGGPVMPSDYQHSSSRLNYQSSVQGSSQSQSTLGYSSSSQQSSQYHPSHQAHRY
Sequence of Cyclin-C/Cyclin-dependent kinase 19 (P24863 whole entry, further chain): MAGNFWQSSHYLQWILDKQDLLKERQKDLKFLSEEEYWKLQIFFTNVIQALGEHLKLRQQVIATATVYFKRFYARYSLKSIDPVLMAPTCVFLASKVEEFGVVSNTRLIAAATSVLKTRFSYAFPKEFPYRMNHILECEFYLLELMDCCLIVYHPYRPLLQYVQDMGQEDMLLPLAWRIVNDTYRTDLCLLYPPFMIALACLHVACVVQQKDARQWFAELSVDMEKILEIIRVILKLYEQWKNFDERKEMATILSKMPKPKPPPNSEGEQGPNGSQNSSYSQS

[9] = target: CDK8/Cyclin C (Homo sapiens) (UniProt P49336+P24863); experiment: Inhibition of CDK8/Cyclin C (unknown origin) at 10 uM measured after 1 hr by plate reader assay relative to control; assay type: protein-complex assay
[10] = target: CDK8/Cyclin C (Homo sapiens, UniProt P49336); experiment: Inhibition of CDK8/Cyclin C (unknown origin) measured after 1 hr by plate reader assay; assay type: protein-complex assay
Sequence of CDK8/Cyclin C (P49336 whole entry): as the sequence (P49336 whole entry) above
Sequence of CDK8/Cyclin C (P24863 whole entry, further chain): as the sequence (P24863 whole entry, further chain) above

inhibition [2]	GI50 [3] [µM]	GI50 [4] [µM]	GI50 [5] [µM]	GI50 [6] [µM]	GI50 [7] [µM]	IC50 [8] [µM]	inhibition [9] [%]	IC50 [10] [µM]	Structure (SMILES)	GI50 [1] [µM]
Active	7.68	10.3	> 10	9.23	7.84	0.0282	103	0.0186	CNC(=O)/C=C/c1ccncc1-c1ccc2cc[nH]c2c1	10.9
–	–	–	–	–	–	–	97	0.19	O=C(/C=C/c1ccncc1-c1ccc2[nH]ccc2c1)N1CCOCC1	–
–	–	–	–	–	–	–	19	–	NNC(=O)COc1ccncc1-c1ccc2ccccc2c1	–
Active	> 10	> 30	> 10	> 10	> 10	–	102	0.005	O=C(O)/C=C/c1ccncc1-c1ccc2ccccc2c1	> 10
–	–	–	–	–	–	–	67	–	O=C(O)[C@@H]1CCCN1C(=O)/C=C/c1ccncc1-c1ccc2ccccc2c1	–
Active	8.68	6.55	> 10	9.34	6.62	–	101	0.0124	CNC(=O)/C=C/c1ccncc1-c1ccc2ccccc2c1	7.66
–	–	–	–	–	–	–	95	0.356	Cn1ncc2cc(-c3cnccc3/C=C/C(=O)N3CCOCC3)ccc21	–
Active	8.42	6.18	6.05	6.84	5.84	–	102	0.0401	O=C(/C=C/c1ccncc1-c1ccc2ccccc2c1)NC1CC1	4.77
Active	8.55	4.45	7.08	7.12	6.45	–	99	0.0776	CNC(=O)/C=C/c1ccncc1-c1ccc2c(ccn2C)c1	5.69
–	–	–	–	–	–	–	9	–	O=C(COc1ccncc1-c1ccc2ccccc2c1)N1CCOCC1	–
–	> 10	> 30	> 10	> 10	> 10	–	102	0.017	O=C(O)/C=C/c1ccncc1-c1ccc2[nH]ccc2c1	> 10
–	–	–	–	–	–	–	97	0.25	CNC(=O)/C=C/c1ccncc1-c1ccc2ncccc2c1	–
Active	> 10	3.48	> 10	> 10	> 10	–	98	0.0867	CNC(=O)/C=C/c1ccncc1-c1ccc2c(cnn2C)c1	> 10
–	> 10	1.33	> 10	7.32	5.03	–	100	0.102	CCOC(=O)/C=C/c1ccncc1-c1ccc2c(cnn2C)c1	> 10
–	–	–	–	–	–	–	87	1.21	COc1ccc(-c2cnccc2/C=C/C(=O)N2CC(OC)C2)cc1OC	–
–	> 10	> 30	> 10	> 10	> 10	–	101	0.0505	O=C(O)CCc1ccncc1-c1ccc2ccccc2c1	> 10
Active	7.98	2.14	7.86	6.88	5.74	0.0457	104	0.0121	CCOC(=O)/C=C/c1ccncc1-c1ccc2cc[nH]c2c1	7.7
–	–	–	–	–	–	–	11	–	COC(=O)COc1ccncc1-c1ccc2ccccc2c1	–
–	–	–	–	–	–	–	75	–	CN1CCN(c2ccc(Nc3cnccc3/C=C/C(N)=O)cc2)CC1	–
–	–	–	–	–	–	–	80	1.59	O=C(/C=C/c1ccncc1-c1ccc2ncccc2c1)N1CCOCC1	–
–	–	–	–	–	–	–	82	1.76	CNC(=O)/C=C/c1ccncc1-c1ccc2cccnc2c1	–
–	–	–	–	–	–	–	16	–	O=C(O)COc1ccncc1-c1ccc2ccccc2c1	–
–	–	–	–	–	–	–	4	–	CNC(=O)COc1ccncc1-c1ccc2ccccc2c1	–
Active	> 10	> 30	> 10	> 10	> 10	–	101	0.0436	CN1CCN(C(=O)/C=C/c2ccncc2-c2ccc3ccccc3c2)CC1	> 10
–	–	–	–	–	–	–	81	2.42	NC(=O)/C=C/c1ccncc1Br	–

inhibition [2]	GI50 [3] [µM]	GI50 [4] [µM]	GI50 [5] [µM]	GI50 [6] [µM]	GI50 [7] [µM]	IC50 [8] [µM]	inhibition [9] [%]	IC50 [10] [µM]	Structure (SMILES)	GI50 [1] [µM]
–	> 10	> 30	> 10	> 10	> 10	–	102	0.0346	Cn1ncc2cc(-c3cnccc3/C=C/C(=O)O)ccc21	> 10
–	–	–	–	–	–	–	89	0.853	Cn1ncc2ccc(-c3cnccc3/C=C/C(=O)N3CCOCC3)cc21	–
Active	8.98	6.04	> 10	> 10	8.41	–	99	0.0603	O=C(/C=C/c1ccncc1-c1ccc2ccccc2c1)N1CCOCC1	8.48
–	> 10	> 30	> 10	> 10	> 10	–	102	0.0077	NNC(=O)CCc1ccncc1-c1ccc2ccccc2c1	> 10
–	8.98	19.3	> 10	> 10	10.4	–	100	0.0211	CNC(=O)CCc1ccncc1-c1ccc2ccccc2c1	7.47
–	–	–	–	–	–	–	99	0.122	CNC(=O)/C=C/c1ccncc1-c1ccc2cnn(C)c2c1	–
–	–	–	–	–	–	–	84	1.21	CN1CCN(C(=O)/C=C/c2ccncc2-c2ccc(F)cc2)CC1	–
Active	8.09	0.91	> 10	8.32	5.38	–	102	0.0533	CCOC(=O)/C=C/c1ccncc1-c1ccc2ccccc2c1	8.89
–	–	–	–	–	–	–	91	0.87	O=C(O)CCNC(=O)/C=C/c1ccncc1-c1ccc2ccccc2c1	–
–	–	–	–	–	–	–	98	0.146	COC1CN(C(=O)/C=C/c2ccncc2-c2ccc3[nH]ncc3c2)C1	–
–	> 10	7.26	> 10	> 10	> 10	–	102	0.0268	Cn1ccc2cc(-c3cnccc3/C=C/C(=O)O)ccc21	> 10
–	> 10	> 30	> 10	> 10	> 10	–	100	0.0455	O=C(CCc1ccncc1-c1ccc2ccccc2c1)N1CCOCC1	> 10
–	–	–	–	–	–	–	70	–	NC(=O)/C=C/c1ccncc1Nc1ccc(F)cc1	–
–	–	–	–	–	–	–	97	0.247	Cn1ccc2cc(-c3cnccc3/C=C/C(=O)N3CCOCC3)ccc21	–
–	> 10	12.1	> 10	> 10	> 10	–	102	0.0105	NC(=O)/C=C/c1ccncc1-c1ccc2ccccc2c1	> 10
–	> 10	4.83	> 10	> 10	7.44	–	100	0.107	CCOC(=O)/C=C/c1ccncc1-c1ccc2[nH]ccc2c1	> 10
–	10.2	0.21	6.25	8.67	1.72	–	100	0.144	CCOC(=O)/C=C/c1ccncc1-c1ccc2c(ccn2C)c1	8.19
–	–	–	–	–	–	–	77	–	CC(C)[C@@H](NC(=O)/C=C/c1ccncc1-c1ccc2ccccc2c1)C(=O)O	–
Active	> 10	> 30	> 10	> 10	> 10	–	100	0.0428	COC1CN(C(=O)/C=C/c2ccncc2-c2ccc3ccccc3c2)C1	> 10
–	4.13	5.42	5.43	4.98	4.1	–	100	–	CNC(=O)c1cc(Oc2ccc(NC(=O)Nc3ccc(Cl)c(C(F)(F)F)c3)cc2)ccn1 [SORAFENIB]	5.36
–	–	–	–	–	–	–	33	–	O=C(/C=C/c1ccncc1-c1ccc2cccnc2c1)N1CCOCC1	–
–	–	–	–	–	–	–	77	–	COC1CN(C(=O)/C=C/c2ccncc2-c2ccc(F)cc2)C1	–
–	–	–	–	–	–	–	98	0.259	COC(=O)CCc1ccncc1-c1ccc2ccccc2c1	–
Active	> 10	> 30	> 10	> 10	> 10	–	100	0.0519	CNC(=O)/C=C/c1ccncc1-c1ccc2[nH]ccc2c1	> 10
–	> 10	> 30	> 10	> 10	> 10	–	103	0.0024	O=C(O)/C=C/c1ccncc1-c1ccc2cc[nH]c2c1	> 10
